The text below walks through data of patent US10532040B2, “Methods of treating cancer with herbacetin” (REGENTS OF THE UNIVERSITY OF MINNESOTA, priority 2011, dated 2020).

“Also recorded” adds a separate entry of the source.

For data set [1], the system named is HCT116, DLD1, HT29 colon cancer cells. Kind of data set: growth of colon cancer cells, MTS assay. Format: cell-based. The protocol:
(§1) FIGS. 3A-3H. Anticancer effect of herbacetin. (a) The effect of herbacetin on ODC activity in colon cancer cell lines was measured as the release of CO2 from L-[1-C^14] ornithine. […] (b) The effect of herbacetin and DFMO on the growth of colon cancer cells and (c) TPA-induced JB6 cell growth was compared. Cells were incubated for 72 h and growth was estimated using the MTS assay. (d) The effect of herbacetin on anchorage independent HCT116 colon cancer cell growth and (e) TPA-induced JB6 cell transformation was assessed. Cells were incubated for 2 weeks and then colonies were counted using a microscope and the Image-Pro PLUS (v.6) computer software program. The effect of herbacetin on AP-1 reporter activity in (f) HCT116 colon cancer cells and (g) TPA-induced AP-1 reporter activity in JB6 mouse epidermal cells was analyzed using the substrates included in the reporter assay system. Data are represented as means±S.D. of triplicate values from three independent experiments and the asterisk (*) indicates a significant (p<0.05) effect of herbacetin or DFMO compared to untreated or TPA-treated controls. (h) The effect of herbacetin on the phosphorylation of ERK1 and ERK2 in HCT116 colon cancer cells was determined by Western blotting. Similar results were observed from two independent experiments.
Background: Formazan colour is commonly taken as a measure of viable cells.

The subject of data set [2] is activator protein-1, Cox2, NF-kappaB. Put plainly: promoter activities (preliminary data). The class given is cell-based.
For data set [3], the system named is JB6 mouse epidermal skin cells. Put plainly: proliferation and colony formation of JB6 mouse epidermal skin cells. Format: cell-based. As to conditions: preliminary data. The protocol:
as §1

The test system of data set [4] is SKH-1 hairless mice, DMBA/TPA-induced skin tumors. Put plainly: DMBA/TPA two-stage skin carcinogenesis mouse model, 20 weeks. The class given is in vivo. The source says:
Hairless SKH:HR-1-hrBr (SKH-1) mice were obtained from Charles River and were maintained under “specific pathogen-free” conditions following the guidelines established by the University of Minnesota Institutional Animal Care and Use Committee. Mice (8˜9 weeks old) were divided into five groups: 1) DMBA+vehicle group (n=20); 2) DMBA-initiated (200 nmol) and TPA-promoted group (17 nmol; n=20); 3) DMBA/TPA+100 nmol of herbacetin (n=20) group; 4) DMBA/TPA+500 nmol of herbacetin group (n=20); 5) DMBA+500 nmol of herbacetin group (n=20). One week after initiation, 17 nmol of TPA in acetone was topically applied twice weekly until the termination of the experiment at 20 weeks. When used, each dose of herbacetin was dissolved in 0.2 ml of 10% H2O in acetone and then topically applied to dorsal mouse skin at 30 min before TPA treatment. The number and volume of tumors per mouse was recorded weekly. The results are expressed as the percent of mice with tumors (incidence), average tumor volumes (size) and average number of tumors per mouse (multiplicity).

Data set [5] relates to HCT116 colon cancer cells. Put plainly: anchorage independent HCT116 colon cancer cell growth. Format: cell-based. On the procedure: as §1
Data set [6] concerns ERKs/RSK2 signaling. Kind of data set: TPA- or EGF-induced phosphorylation of ERK1 and ERK2 in JB6 cells, Western blotting. The class given is cell-based, mouse. The settings on record: herbacetin 2 h then TPA or EGF 15 min. The protocol:
FIGS. 6A-6B. The effect of herbacetin on (a) TPA- or (b) EGF-induced phosphorylation of ERK1 and ERK2 in JB6 mouse epidermal cells was analyzed by Western blotting. Serum-starved (0.1% FBS; 24 h) cells were treated with various doses of herbacetin for 2 h followed by treatment with TPA for 15 min.
We determined whether herbacetin affected the reporter activity of the MAP kinase target transcription factor, activator protein-1 (AP-1), in HCT116 cells or JB6 cells stimulated with TPA. HCT116 cells were treated with herbacetin for 48 hand JB6 cells were pre-treated with herbacetin for 2 h before stimulation with TPA for 48 h. AP-1 reporter activity was then measured (FIG. 3f, g) and the activity was attenuated by herbacetin in colon cancer cells and in TPA-activated JB6 cells. […] We next examined whether herbacetin directly suppresses phosphorylation of ERK1/2. JB6 cells were treated with TPA or EGF for 15 min after pre-treatment with herbacetin for 2 h and protein expression was analyzed by Western blotting (Supplementary FIG. 2a,b).
(Immunoblotting shows a protein as a band on a membrane.)

Data set [7] concerns C57BL/6J-ApcMin+ mice. Kind of data set: APCMin+ mouse colon cancer prevention pilot study, IP, 15 weeks. The class given is in vivo. The protocol: The anti-cancer effect of herbacetin in vivo has also been shown. Herbacetin prevents colon cancer development in […]57BL/6J-ApcMin+ were divided into […] and injected IP with vehicle or 1 of 2 amounts of herbacetin in vehicle. The doses included 0, 0.4, or 2 mg/kg B.W. herbacetin injected IP (n=15 total, 5 per group; Table 1). APC-min mice were 5 weeks old at the beginning of the study and received herbacetin for 15 weeks 5 days/week.

For data set [8], the system named is HCT116 cells (shMock, shODC, shODC+ODC). Kind of data set: growth of shMock, shODC and shODC+ODC HCT116 cells. Format: cell-based. On the procedure:
FIGS. 4A-4B. The anti-cancer activity exerted by herbacetin is dependent on ODC expression. (a) The effect of herbacetin on HCT116 colon cancer cell growth was assessed in shMock, shODC and shODC cells with rescued ODC expression. Cells were incubated for 72 h and growth was determined by MTS assay. (b) The effect of herbacetin on anchorage independent HCT116 colon cancer cell growth was assessed inshMock, shODC and shODC cells with rescued ODC expression. Cells were incubated in 0.3% agar for 3 weeks and colonies were counted using a microscope and the Image-Pro PLUS (v.6) computer software program. Data are represented as means±S.D. of triplicate values. The asterisk (*) indicates a significant effect (p<0.05) of herbacetin or DFMO compared to untreated controls.
The lentiviral expression vectors, including pLKO.1-shODC and packaging vectors, including pMD2.0G and psPAX, were purchased from Addgene Inc. (Cambridge, Mass.). […] The transfection medium was changed at 4 h after transfection and then cells were cultured for 36 h. The viral particles were harvested by filtration using a […] syringe filter and then combined with 8 μg/ml of polybrane (Millipore, Billerica, Mass.) and infected into 60% confluent HCT-116 cells overnight. The cell culture medium was replaced with fresh complete growth medium for 24 h and then cells were selected with 1.5 μg/ml of puromycine for 36 h. The selected cells were used for experiments.

The mark [9] stands for this setting: herbacetin 100 or 500 nmol topical before TPA, relative to TPA-treated group.
Where [10] appears, read: 0.4 or 2 mg/kg BW IP, 15 weeks, 5 days/week.

As for `O=c1c(O)c(-c2ccc(O)cc2)oc2c(O)c(O)cc(O)c12` [herbacetin, 3,5,7,8,4′-Pentahydroxyflavone], the “inhibitory effect on growth of colon cancer cell lines” value in data set [1] (72 h, MTS, HCT116, DLD1, HT29) is “greatest inhibitory effect on colon cancer cells that expressed higher levels of ODC”. Moreover, the “proliferation and anchorage independent cell growth of several colon cancer cell lines” value in data set [1] (preliminary data) is “decrease proliferation and anchorage independent cell growth”. In data set [2], the “promoter activities of activator protein-1, Cox2, NF-kappaB” value is listed as “suppress promoter activities”. The “cell proliferation and anchorage independent colony formation” value in data set [3] was “decrease cell proliferation and anchorage independent colony formation”. Besides, the “tumors in herbacetin only (no TPA) group” value in data set [4] (DMBA + 500 nmol herbacetin, no TPA) is listed as “No tumors were observed”. The “ODC activity in skin tumors” value in data set [4] (TPA-induced skin tumor tissue) was “significantly inhibited ODC activity”. Further, in data set [4] (setting [9]), the “number of skin tumors” value is recorded as “strongly suppressed” and the “volume of skin tumors” value is listed as “strongly suppressed”. Moreover, in data set [4] (immunoblot of TPA-induced skin tumors), the “ODC downstream proteins such as ERK and RSK in skin tumors” value was “strongly suppressed”. Moreover, the “effectiveness relative to DFMO in suppressing anchorage independent growth” value in data set [5] (HCT116, 2 weeks) is reported as “at least 20 fold”. Also, the “potency relative to DFMO” value in data set [5] (general statement, test not specified) is on record as 20-50 times. For the same molecule, in data set [6], the “direct suppression of ERKs/RSK2 signaling” value is reported as “does not occur directly through the suppression of ERKs/RSK2 signaling”. In addition, in data set [7] (setting [10]), the colon tumor number entry is reported as “fewer” and the colon tumor size result is listed as “smaller”. Besides, the body weight entry in data set [7] (APCMin+ mice) is recorded as “no effect”. In data set [8] (shODC vs shMock HCT116 cells), the “inhibitory effect on anchorage-dependent and -independent growth of shODC cells” value is “resistance to herbacetin; also recorded: resistant”. In data set [8] (shODC+ODC HCT116 cells), the “sensitivity of shODC cells with rescued ODC expression” value is listed as “restored; also recorded: regained sensitivity”. For the same molecule, in data set [8] (shODC+ODC HCT116 cells, soft agar), the “inhibition of colony growth after re-introduction of ODC into sh-ODC knockdown cells” value is on record as “restored sensitivity”.
